Columns and labels:
Conditions in all cases: 72 h
Caco-2 [1] = assay: cell viability relative to DMSO; higher = less toxic
Calu-3 [2] = assay: as above
HepG2 [3] = assay: as above
U2OS [4] = assay: as above
Vero E6 [5] = assay: as above
Caco-2 [6] = assay: relative viability EC50 (midpoint between 100% and the lowest measured viability); higher = less toxic
Calu-3 [7] = assay: as above
HepG2 [8] = assay: as above
U2OS [9] = assay: as above
Vero E6 [10] = assay: as above
Caco-2 [11] = assay: drug sensitivity score (DSS) for viability; higher = more toxic; extreme values may be limits of the assay
Calu-3 [12] = assay: as above
HepG2 [13] = assay: as above
U2OS [14] = assay: as above
Vero E6 [15] = assay: as above

Structure (SMILES) | cell viability (Caco-2 [1]; 1 nM) | cell viability (Caco-2 [1]; 10 nM) | cell viability (Caco-2 [1]; 100 nM) | cell viability (Caco-2 [1]; 1000 nM) | cell viability (Caco-2 [1]; 10000 nM) | cell viability (Calu-3 [2]; 1 nM) | cell viability (Calu-3 [2]; 10 nM) | cell viability (Calu-3 [2]; 100 nM) | cell viability (Calu-3 [2]; 1000 nM) | cell viability (Calu-3 [2]; 10000 nM) | cell viability (HepG2 [3]; 1 nM) | cell viability (HepG2 [3]; 10 nM) | cell viability (HepG2 [3]; 100 nM) | cell viability (HepG2 [3]; 1000 nM) | cell viability (HepG2 [3]; 10000 nM) | cell viability (U2OS [4]; 1 nM) | cell viability (U2OS [4]; 10 nM) | cell viability (U2OS [4]; 100 nM) | cell viability (U2OS [4]; 1000 nM) | cell viability (U2OS [4]; 10000 nM) | cell viability (Vero E6 [5]; 1 nM) | cell viability (Vero E6 [5]; 10 nM) | cell viability (Vero E6 [5]; 100 nM) | cell viability (Vero E6 [5]; 1000 nM) | cell viability (Vero E6 [5]; 10000 nM) | relative viability EC50 (Caco-2 [6]) | relative viability EC50 (Calu-3 [7]) | relative viability EC50 (HepG2 [8]) | relative viability EC50 (U2OS [9]) | relative viability EC50 (Vero E6 [10]) | drug sensitivity score (Caco-2 [11]) | drug sensitivity score (Calu-3 [12]) | drug sensitivity score (HepG2 [13]) | drug sensitivity score (U2OS [14]) | drug sensitivity score (Vero E6 [15])
CCc1cccc(CC)c1NC(=O)CN(CC(=O)O)CC(=O)O [etifenin] | 83.1% | 104% | 95.7% | 124% | 93.3% | 94.6% | 104% | 105% | 90.5% | 90.6% | 104% | 84.1% | 106% | 95.9% | 113% | 87.1% | 97.2% | 90.1% | 103% | 106% | 106% | 93.7% | 106% | 97.4% | 95% | > 10 µM | > 10 µM | > 10 µM | > 10 µM | > 10 µM | 0 | 0 | 0 | 0 | 0
Cn1c(=O)c2c(ncn2CCO)n(C)c1=O [etofylline] | 103% | 98% | 90.5% | 102% | 97.6% | 97.8% | 99.6% | 97% | 98.2% | 102% | 101% | 110% | 88.8% | 96.6% | 102% | 102% | 97.4% | 97% | 98.8% | 98.4% | 104% | 98% | 103% | 103% | 103% | > 10 µM | > 10 µM | > 10 µM | > 10 µM | > 10 µM | 0 | 0 | 0 | 0 | 0
Cc1cnc(Nc2ccc(OCCN3CCCC3)cc2)nc1Nc1cccc(S(=O)(=O)NC(C)(C)C)c1 [fedratinib] | 101% | 97.1% | 99.3% | 79.6% | 11.9% | 107% | 102% | 100% | 98.5% | 18.3% | 120% | 100% | 101% | 74.2% | 22.2% | 104% | 97.4% | 99.2% | 86.2% | 0.8% | 96% | 104% | 104% | 94.2% | 0.3% | 1.61 µM | 3.04 µM | 1.32 µM | 2.05 µM | 2.71 µM | 8.1 | 4.7 | 8 | 7.8 | 6.4
CC1(C)O[C@@H]2C[C@H]3[C@@H]4C[C@H](F)C5=CC(=O)C=C[C@]5(C)[C@H]4[C@@H](O)C[C@]3(C)[C@]2(C(=O)CO)O1 [flunisolide] | 105% | 103% | 91.5% | 87.7% | 98.5% | 98.5% | 96.1% | 101% | 94.5% | 88.5% | 105% | 104% | 97.3% | 97.3% | 99.2% | 102% | 93.9% | 91.4% | 93.8% | 94.7% | 96.6% | 97.6% | 95.3% | 94.2% | 102% | > 10 µM | > 10 µM | > 10 µM | > 10 µM | > 10 µM | 1 | 0.2 | 0 | 0 | 0
c1ccc(OCc2ccc(CCCN3CCOCC3)cc2)cc1 [fomocaine] | 87.8% | 92.8% | 100% | 93.4% | 97.1% | 110% | 101% | 108% | 96.3% | 113% | 96.7% | 106% | 97.1% | 101% | 90.4% | 93.7% | 94.6% | 98.5% | 100% | 101% | 94.9% | 95.7% | 93.1% | 100% | 100% | > 10 µM | > 10 µM | > 10 µM | > 10 µM | > 10 µM | 0 | 0 | 0 | 0 | 0
O=C(O)P(=O)(O)O [foscarnet] | 97.4% | 103% | 97.5% | 102% | 102% | 110% | 105% | 106% | 91.9% | 93.4% | 102% | 105% | 99.9% | 104% | 96.7% | 104% | 100% | 99.2% | 99.1% | 102% | 106% | 104% | 98.3% | 99.5% | 101% | > 10 µM | > 10 µM | > 10 µM | > 10 µM | > 10 µM | 0 | 0 | 0 | 0 | 0

Reference: the supplement of paper PMC13380429
